In patent US11873320B2 (REATA PHARMACEUTICALS HOLDINGS, LLC, priority 2013, dated 2024):
Read-outs that look alike come from different tables or passages of the source.

Assays:
[1] = metabolism in rodent liver microsomes; assay type: in vitro ADME, mice, rats; details: 60-minute incubation, NADPH and UGT
[2] = system: H6PD, PGD, TKT, ME1 mRNA; test: expression of genes involved in NADPH synthesis, HCT-116 cells; assay type: cell-based; details: 24 hours
[3] = system: IFNγ-induced NO production; test: IFNγ-induced NO production in RAW264.7 macrophages (Griess reagent); assay type: cell-based; details: Mus musculus
Description: Inhibition of IFNγ-induced NO production by AIMs is Nrf2-dependent (Dinkova-Kostova, 2005). […] Nitrite (NO2^−) levels in the media were measured as a surrogate for nitric oxide using the Griess reagent assay. Cell viability was assessed using the WST-1 assay. […] 63170, 63171, 63179, and 63189 are compounds of the formulas: […]

[4] = system: TNFα-induced NF-κB activation; test: TNFα-induced NF-κB luciferase reporter, A549/NF-κB-Luc cells; assay type: cell-based; details: Homo sapiens
Excerpt: NF-κB is a transcription factor that plays a central role in the regulation of many immune and inflammatory responses.

[5] = oral pharmacokinetics in monkeys; assay type: in vivo, monkey; details: 3 mg/kg
Description: Following oral administration of a suspension formulation at doses of 10 to 100 mg/kg, maximal concentrations were observed within 1 to 2 hours in mice, and within 1 to 24 hours in rats and monkeys.

[6] = system: RANKL-induced TRAP activity and formation of osteoclasts; test: RANKL-induced osteoclastogenesis in RAW264.7; assay type: cell-based; details: Mus musculus, Osteoclast; 2 h pretreatment, 50 ng/mL RANKL
Excerpt: Osteoclastogenesis is a multi-step differentiation process that results from the binding of RANKL to its receptor, RANK, on cells of hematopoietic origin.

[7] = topical ocular administration pharmacokinetics in rabbits; assay type: in vivo, rabbit
Description: Using rabbits, the ocular absorption and systemic pharmacokinetic behavior of RTA 408 was evaluated.

[8] = system: bleomycin-induced pulmonary fibrosis
[9] = system: LPS-induced pulmonary inflammation; test: LPS-induced pulmonary inflammation in mice, first study (QD×3); assay type: in vivo, mouse
Description: Animals were sacrificed 20 hours after LPS administration. BALF was examined for pro-inflammatory cytokine expression.

[10] = system: transaminase mRNA levels; test: transaminase gene expression in AML-12 hepatocytes; assay type: cell-based, mouse; details: 250 nM or 500 nM, 18 hours
Excerpt: One hypothesis for this effect is that AIMs directly or indirectly increase transaminase gene expression in the absence of cellular toxicity.

[11] = system: CYP3A4; test: CYP450 induction in cultured human hepatocytes: CYP3A4; assay type: in vitro ADME; details: up to 3 μM
[12] = system: Nrf2 target genes; test: Nrf2 target gene expression in BEAS-2B bronchial epithelial cells; assay type: cell-based, human; details: 18 hours
[13] = system: glutathione levels; test: induction of glutathione levels, RAW264.7 mouse model; assay type: cell-based
Excerpt: Glutathione and NADPH are critical factors required for the maintenance of cellular redox capacity. […] Data shown are representative of two independent experiments.

[14] = system: CYP1A2; test: CYP450 induction in cultured human hepatocytes: CYP1A2; assay type: in vitro ADME; details: up to 3 μM
[15] = mouse tissue distribution, 25 mg/kg PO QD×3
[16] = topical administration pharmacokinetics in rats; assay type: in vivo, rat; details: 0.01 to 3% in sesame oil
Excerpt: The topical administration was formulated as a suspension in sesame oil.

[17] = system: acute radiation dermatitis; test: acute radiation dermatitis model, BALB/c mice; assay type: in vivo, mouse
Description: Using male BALB/c mice, a 30 Gy dose of radiation was administered on day 0 (Table 3). […] The remaining mice were sacrificed on day 30 at 4 hours postdose. Plasma was collected on days 12 and 30 as well as irradiated skin samples for mRNA and histological examination. [table]

[18] = oral pharmacokinetics, statements pooled over mice, rats and monkeys; assay type: in vivo
[19] = system: LPS-induced sepsis; details: mouse, in vivo
[20] = system: LPS-induced NO; test: in vivo NO suppression after LPS, CD-1 mice; details: mouse
[21] = system: C2C12 muscle cells; test: glycolytic intermediates in C2C12 myotubes; assay type: cell-based, rodent
[22] = system: cigarette smoke-induced COPD; test: cigarette smoke-induced COPD in mice; assay type: in vivo, mouse
Description: At the end of the study, lung tissue and BALF were collected for analysis of inflammatory infiltrates and cytokines. […] An AIM analog (63355) was tested in the same study for comparison. 63355 is a compound of the formula: […]

CC1(C)CC[C@]2(NC(=O)C(C)(F)F)CC[C@]3(C)[C@H](C(=O)C=C4[C@@]5(C)C=C(C#N)C(=O)C(C)(C)[C@@H]5CC[C@]43C)[C@@H]2C1 [RTA 408, N-((4aS,6aR,6bS,8aR,12aS,14aR,14bS)-11-cyano-2,2,6a,6b,9,9,12a-heptamethyl-10,14-dioxo-1,2,3,4,4a,5,6,6a,6b,7,8,8a,9,10,12a,14,14a,14b-octadecahydropicen-4a-yl)-2,2-difluoropropanamide]
parent molecule remaining [1]: > 65% | mRNA levels of H6PD, PGD, TKT, ME1 [2]: dose-dependent increase in expression of genes involved in NADPH synthesis | IC50 ([3]; 2 h pre-treatment, 20 ng/mL IFNγ 24 h, read-out: IC50, suppression of IFNγ-induced NO production): 3.8 ± 1.2 nM | IC50 ([3]; Table 15, read-out: NO IC50 (nM), RAW264.7): 4 ± 1 nM | IC50 [4]: 627 nM | dose-normalized systemic exposure of loose-filled capsule vs suspension formulation [5]: somewhat lower | IC50 [6]: 5 to 10 nM | eye tissues with the highest concentrations ([7]; ocular topical administration): cornea, retina, or iris | plasma concentrations after oral vs topical ocular administration ([7]; once per day for 5 days): ~100 fold | tolerability finding that stopped dosing on day 14 ([8]; 30 mg/kg): excessive dehydration and diarrhea | polymorphonuclear (PMN) cell infiltration into the lungs ([8]; 3 and 10 mg/kg, 28 days): significantly suppressed | collagen deposition (trichrome staining) ([8]; rat, in vivo): significant decrease in collagen deposition | NQO1, Txnrd, Gsr, and Gst enzyme activity in lungs ([8]; rats exposed to bleomycin): significantly and dose-dependently increased | TNFα in BALF ([9]; 100 and 150 mg/kg doses): significant reduction | IL-12p40 in BALF ([9]; all doses (30, 100, 150 mg/kg)): significant reduction | alanine transaminase 1 (Alt1 or Gpt1) mRNA [10]: increased mRNA levels | alanine transaminase 2 (Alt2 or Gpt2) mRNA [10]: no effect | aspartate transaminase 1 (Ast1 or Got1) mRNA [10]: increased mRNA levels | aspartate transaminase 2 (Ast2 or Got2) mRNA [10]: reduced mRNA levels | induction of enzyme activity [11]: not an inducer | expression of Nrf2 target genes [12]: dose-dependent increase of all Nrf2 target genes evaluated | EC50 [13]: 9.9 nM | induction of enzyme activity [14]: not an inducer | levels in the CNS [15]: Notable levels were observed in the CNS | plasma concentrations after topical administration [16]: lower plasma concentrations relative to similar oral dosing | percentage of mice with dermatitis clinical score above 3 ([17]; oral administration): significantly lower | Percentage of mice which scored above 2 in clinical dermatitis exam ([17]; topical 0.01%, Day 12): 0.0% | Percentage of mice which scored above 2 in clinical dermatitis exam ([17]; topical 0.01%, Day 14): 0.0% | Percentage of mice which scored above 2 in clinical dermatitis exam ([17]; topical 0.01%, Day 16): 20.0% | Percentage of mice which scored above 2 in clinical dermatitis exam ([17]; topical 0.01%, Day 18): 50.0% | Percentage of mice which scored above 2 in clinical dermatitis exam ([17]; topical 0.01%, Day 20): 10.0% | Percentage of mice which scored above 2 in clinical dermatitis exam ([17]; topical 0.01%, Day 22): 40.0% | Percentage of mice which scored above 2 in clinical dermatitis exam ([17]; topical 0.01%, Day 24): 40.0% | Percentage of mice which scored above 2 in clinical dermatitis exam ([17]; topical 0.01%, Day 26): 40.0% | Percentage of mice which scored above 2 in clinical dermatitis exam ([17]; topical 0.01%, Day 28): 20.0% | Percentage of mice which scored above 2 in clinical dermatitis exam ([17]; topical 0.01%, Day 30): 10.0% | Percentage of mice which scored above 2 in clinical dermatitis exam ([17]; topical 0.1%, Day 12): 7.1% | Percentage of mice which scored above 2 in clinical dermatitis exam ([17]; topical 0.1%, Day 14): 10.0% | Percentage of mice which scored above 2 in clinical dermatitis exam ([17]; topical 0.1%, Day 16): 20.0% | Percentage of mice which scored above 2 in clinical dermatitis exam ([17]; topical 0.1%, Day 18): 80.0% | Percentage of mice which scored above 2 in clinical dermatitis exam ([17]; topical 0.1%, Day 20): 60.0% | Percentage of mice which scored above 2 in clinical dermatitis exam ([17]; topical 0.1%, Day 22): 40.0% | Percentage of mice which scored above 2 in clinical dermatitis exam ([17]; topical 0.1%, Day 24): 30.0% | Percentage of mice which scored above 2 in clinical dermatitis exam ([17]; topical 0.1%, Day 26): 10.0% | Percentage of mice which scored above 2 in clinical dermatitis exam ([17]; topical 0.1%, Day 28): 0.0% | Percentage of mice which scored above 2 in clinical dermatitis exam ([17]; topical 0.1%, Day 30): 0.0% | Percentage of mice which scored above 2 in clinical dermatitis exam ([17]; topical 1.0%, Day 14): 20.0% | Percentage of mice which scored above 2 in clinical dermatitis exam ([17]; topical 1.0%, Day 16): 10.0% | Percentage of mice which scored above 2 in clinical dermatitis exam ([17]; topical 1.0%, Day 18): 70.0% | Percentage of mice which scored above 2 in clinical dermatitis exam ([17]; topical 1.0%, Day 20): 30.0% | Percentage of mice which scored above 2 in clinical dermatitis exam ([17]; topical 1.0%, Day 22): 10.0% | Percentage of mice which scored above 2 in clinical dermatitis exam ([17]; topical 1.0%, Day 24): 0.0% | Percentage of mice which scored above 2 in clinical dermatitis exam ([17]; topical 1.0%, Day 26): 0.0% | Percentage of mice which scored above 2 in clinical dermatitis exam ([17]; topical 1.0%, Day 28): 0.0% | Percentage of mice which scored above 2 in clinical dermatitis exam ([17]; topical 1.0%, Day 30): 0.0% | percentage of mice with dermatitis clinical score above 2 ([17]; topical administration): slightly lower | dose dependence of systemic exposure ([18]; 3 to 100 mg/kg, suspension): dose-proportional increases in systemic exposure | exposure at higher doses ([18]; 100 to 800 mg/kg in monkeys, 500 to 2000 mg/kg in rats): saturation of absorption at doses above 100 mg/kg | systemic exposure by sex ([18]; in vivo): generally similar in males and females | exposure after repeated daily oral administration vs single dose ([18]; in vivo, po): ≤ 2 fold | survival, systemic LPS [19]: improved survival | NO in vivo [20]: dose-dependently suppresses NO in vivo | intracellular pyruvate levels ([21]; 250 nM or 500 nM, 18 hours, P<0.0001): increased intracellular pyruvate levels | intracellular and extracellular lactate levels ([21]; 1 μM or 2 μM, 3 hours): significantly increased intracellular and extracellular lactate levels | lung Txnrd enzyme activity ([22]; 30 mg/kg): induced | pro-inflammatory cytokines including KC and TNFα ([22]; doses as low as 3 mg/kg, two weeks): significant suppression of pro-inflammatory cytokines | lung Gsr enzyme activity ([22]; mouse, in vivo): not altered | lung Gst enzyme activity ([22]; mouse, in vivo): decreased with treatment | lung NQO1 enzyme activity decreased by cigarette smoke ([22]; mouse, in vivo): rescued this loss
